Columns and labels:
[1] = system: HEK293 cells; experiment: Preliminary screening as mRNA vectors, EGFP mRNA transfection of HEK293 cells; assay type: cell-based; settings: HEK293 cells, 96-well plates, EGFP mRNA 50 ng per well; percentage of GFP fluorescent cells relative to total number of cells (Hoechst)
Summary of the method: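 HEK293 cells in DMEM plus 10% FBS transfected in 96-well format with 50 ng EGFP mRNA per well; Lipofectamine2000 served as positive control. Read-out is the percentage of GFP-fluorescent cells among total cells, counted by Hoechst nuclear stain.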

[2] = system: HEK293 cells; experiment: Preliminary screening as DNA vectors, GFP transfection of HEK293 cells; assay type: cell-based; settings: HEK293 cells; lipid/DOPE liposome with 75 ng plasmid DNA (psin-EGFP-IRES-Puro); number of cells expressing GFP divided by total number of nuclei (Hoechst)
Summary of the method: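 HEK293 cells in DMEM/10% FBS transfected with 75 ng EGFP plasmid per well complexed with amino lipid/DOPE liposomes in pH 5.6 sodium acetate. Hoechst nuclear stain added 20-24 h post-transfection, then cells cultured another 20-24 h. Confocal imaging gives GFP-positive cells as % of total nuclei.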

| SMILES | Absolute mRNA transfection efficiency in HEK293 cells [1] [%] | Absolute DNA transfection efficiency in HEK293 cells [2] [%] |
| --- | --- | --- |
| CCCCCCCCCCCCCCCNc1nc(NCCN2CCOCC2)nc(N(CCCCCCCCCCCC)CCCCCCCCCCCC)n1 [N15^2N12D2] | 0.0 | 0.5 |
| CCCCCCCCCCCCSc1nc(NCCCN(C)C)nc(SCCCCCCCCCC)n1 [Compound S10S12D6] | 82.4 | 16.2 |
| CCCCCCCCCCCSc1nc(NCCN2CCCC2)nc(SCCCCCCCCC)n1 [Compound S9S11D3] | 1.9 | 10.0 |
| CCCCCCCCCCCCCCCCCCNc1nc(NCCCCCCCCC)nc(NCCN(C)C)n1 [Compound N9N18D1] | 5.1 | 4.0 |
| CCCCCCCCCCCCCCCNc1nc(NCCCCCCCCC)nc(NCCCN2CCOCC2)n1 [Compound N9N15D8] | 1.4 | 0.2 |
| CCCCCCCCCNc1nc(NCCCCCC)nc(NCCN2CCCCC2)n1 [Compound N6N9D4] | 0.3 | 0.0 |
| CCCCCCCCCCCCNc1nc(NCCCCCC)nc(NCCN(CC)CC)n1 [Compound N6N12D7] | 0.0 | 0.0 |
| CCCCCCCCCCCCCCCCNc1nc(NCCCCCCCCCCCCC)nc(NCCCN2CCN(C)CC2)n1 [Compound N13N16D9] | 1.4 | 0.0 |
| CCCCCCCCCCCCCCCCCCSc1nc(NCCN2CCCCC2)nc(SCCCCCCCCC)n1 [Compound S9S18D4] | 0.6 | 5.5 |
| CCCCCCCCCCCCCCCNc1nc(NCCCCCCCCCCCC)nc(NCCN2CCOCC2)n1 [Compound N12N15D2] | 0.4 | 0.3 |
| CCCCCCCCCCCCSc1nc(NCCN2CCCC2)nc(SCCCCCCCCCC)n1 [Compound S10S12D3] | 7.6 | 8.2 |
| CCCCCCCCCCCCNc1nc(NCCCCCCCCC)nc(NCCN2CCCC2)n1 [Compound N9N12D3] | 4.3 | 0.6 |
| CCCCCCCCCCCCCCCCCCNc1nc(NCCCCCCCCCCCCCCCC)nc(NCCCN2CCN(C)CC2)n1 [Compound N16N18D9] | 0.0 | 0.0 |
| CCCCCCCCCCCCCCCNc1nc(NCCCCCCC)nc(NCCN2CCN(C)CC2)n1 [Compound N7N15D5] | 0.0 | 0.0 |
| CCCCCCCCCCCCCNc1nc(NCCCCCCCCCCCCC)nc(NCCCN(C)C)n1 [Compound N13N13D6] | 0.2 | 2.5 |
| CCCCCCCCCCCNc1nc(NCCCCCCC)nc(NCCCN2CCN(C)CC2)n1 [Compound N7N11D9] | 0.0 | 0.1 |
| CCCCCCCCCCCCNc1nc(NCCCCCCC)nc(NCCN2CCCC2)n1 [Compound N7N12D3] | 6.3 | 3.5 |
| CCCCCCCCCCCCCCCSc1nc(NCCCN2CCOCC2)nc(SCCCCCCCC)n1 [Compound S8S15D8] | 8.0 | 23.0 |
| CCCCCCCCCCCCCCCCCCNc1nc(NCCCCCCCCCCCCCCCCCC)nc(NCCN2CCN(C)CC2)n1 [Compound N18N18D5] | 0.0 | 1.1 |

| SMILES | Absolute mRNA transfection efficiency in HEK293 cells [1] [%] | Absolute DNA transfection efficiency in HEK293 cells [2] [%] |
| --- | --- | --- |
| CCCCCCCCCCCCCNc1nc(NCCCCCCCCCCC)nc(NCCN2CCOCC2)n1 [Compound N11N13D2] | 0.1 | 0.0 |
| CCCCCCCCCCCNc1nc(NCCCCCCCCCCC)nc(NCCN2CCN(C)CC2)n1 [Compound N11N11D5] | 0.4 | 0.9 |
| CCCCCCCCCSc1nc(NCCN2CCOCC2)nc(SCCCCCCCCC)n1 [Compound S9S9D2] | 3.1 | 6.8 |
| CCCCCCCCCCCCCCCCCCSc1nc(NCCN(CC)CC)nc(SCCCCCCCC)n1 [Compound S8S18D7] | 3.8 | 9.2 |
| CCCCCCCCCCCCCCSc1nc(NCCN2CCOCC2)nc(SCCCCCCCCCCCCCC)n1 [Compound S14S14D2] | 0.0 | 0.0 |
| CCCCCCCCCCCCCCCSc1nc(NCCCN2CCN(C)CC2)nc(SCCCCCCCCCCCC)n1 [Compound S12S15D9] | 0.9 | 2.0 |
| CCCCCCCCCCCCN(CCCCCCCCCCCC)c1nc(NCCN2CCCC2)nc(N(CCCCCCCCCCCC)CCCCCCCCCCCC)n1 [2N12^2N12D3] | 0.0 | 1.3 |
| CCCCCCCCCCCCCCCCNc1nc(NCCCCCCCCCCCCC)nc(NCCCN2CCOCC2)n1 [Compound N13N16D8] | 3.3 | 0.0 |
| CCCCCCCCCCCCNc1nc(NCCCCCCCC)nc(NCCN(CC)CC)n1 [Compound N8N12D7] | 0.0 | 0.0 |
| CCCCCCCCCCCCCCCCSc1nc(NCC2CCN(C)CC2)nc(SCCCCCCCCCCCCCC)n1 [Compound S14S16D10] | 0.8 | 2.7 |
| CCCCCCCCCCCNc1nc(NCCCCCC)nc(NCCN(C)C)n1 [Compound N6N11D1] | 0.1 | 0.0 |
| CCCCCCCCCCSc1nc(NCCN2CCCCC2)nc(SCCCCCCCCC)n1 [Compound S9S10D4] | 4.1 | 13.3 |
| CCCCCCCCCCCCCCCCSc1nc(NCCN2CCCC2)nc(SCCCCCCCCCCCC)n1 [Compound S12S16D3] | 0.1 | 2.0 |
| CCCCCCCCCCCCCCCCCCSc1nc(NCCN2CCN(C)CC2)nc(SCCCCCCCCCC)n1 [Compound S10S18D5] | 3.5 | 3.7 |
| CCCCCCNc1nc(NCCCCCC)nc(NCCN2CCCCC2)n1 [Compound N6N6D4] | 0.1 | 0.0 |
| CCCCCCCCCCCCNc1nc(NCCCCCCCCCCC)nc(NCCN(C)C)n1 [Compound N11N12D1] | 0.3 | 0.0 |
| CCCCCCCCCCCCCCCCNc1nc(NCCCCCCCC)nc(NCCCN2CCOCC2)n1 [Compound N8N16D8] | 0.2 | 2.3 |
| CCCCCCCCCCCCCCSc1nc(NCCCN2CCOCC2)nc(SCCCCCCCCCC)n1 [Compound S10S14D8] | 7.5 | 18.9 |
